In patent US10550094B2, “Compounds having antioxidant activity against free radicals and anti-inflammatory activity, and corresponding pharmaceutical or cosmetic compositions for skin care” (GIULIANI S.P.A., priority 2015, dated 2020):

Experiments:
[1] = system: TNF-α; test: Anti-inflammatory activity: TNF-α gene expression by qRT-PCR in LPS-treated keratinocytes; type: cell-based, human; settings: for TNF-α (relative gene expression): 10 μg/ml LPS, NCTC 2544; for Comparison vs LFS (%): TNF-α vs Control + LPS
Method: (§1) The immortalized line of human keratinocytes NCTC2544 is used (Perry V. P. et al., 1957), cultured in sterile flasks ([…]), incubated at 37° C. in a humid atmosphere at 5% CO2 in RPMI culture medium added with bovine fetal serum (FBS), 2 mm glutamine, 1% non-essential amino acids, in the presence of 1% penicillin and streptomycin. The 1:3 split is done every 2 days upon achieving the monolayer by washing with 1×PBS (phosphate buffer without Ca^2+ and Mg^2+) and detachment of cells with a trypsin-EDTA solution at 37° C. for 2 minutes. The cells were kept in culture in 25 cm^3 sterile flasks and incubated at 37° C. in a humid atmosphere at 5% CO2.
(§2) Negative control: untreated cells in RPMI medium added to 2.5% fetal bovine serum (FBS), 1% non-essential amino acids (NEAA), 1% of a penicillin and streptomycin mixture (Pen-Strep Mix), and kept in (12 well) 25 cm^2 culture plates at 37° C. and 5% CO2.
(§3) Positive control: cells in RPMI medium added to 2.5% fetal bovine serum (FBS), 1% non-essential amino acids (NEAA), 1% of a penicillin and streptomycin mixture (Pen-Strep Mix) and 10 μg/mL LPS (lipopolysaccharide) and kept in ([…]) 25 cm^2 culture plates at 37° C. and 5% CO2 (in the dark).
Study of the Anti-inflammatory Activity-NCTC 2544
The gene expression of the TNF-α inflammation marker was evaluated by relative quantitative RT-PCR (quantitative reverse transcription-polymerase chain reaction-qRT-PCR).
(§4) This assay involved three sequential steps: • extraction of total RNA; • retrotranscription in cDNA; • qRT-PCR.
Human keratinocytes NCTC 2544 were seeded in 12-well plates at the density of […] cells/well and incubated until reaching about 80% confluence.
Then, the cells were incubated for 16 and 24 hours with the compounds of the invention to be tested and the respective controls at the following concentrations: 13.5 μM and 27 μM, and admixed (in the well) with 10 μg/ml LPS.
(§5) The dilutions were prepared starting from 1000× stock in DMSO, sterile-filtered and using RPMI medium added to 2.5% fetal bovine serum (FBS), 1% non-essential amino acids (NEAA), 1% of a penicillin and streptomycin mixture (Pen-Strep Mix).
(§6) Cells kept in the culture medium alone (RPMI 2.5% FBS) were used as a negative control.
(§7) Cells in the culture medium alone (RPMI 2.5% FBS) and treated only with 10 μg/mL LPS were used as a positive control.
(§8) After incubation, the RNA was extracted. Total RNA was extracted from NCTC 2544 cells using the commercial kit Ribospin™ (GeneAllBiotechnology Co., LTD).
At the end of incubation with the active compounds of the invention, cells were washed with PBS (1×) and finally subjected to RNA extraction procedure. At the end of the extraction, using a spectrophotometer (Jenway UV/VIS MOD: 6715, BS-6715B0), concentrations were calculated in μg/mL of total RNA extracted at a wavelength of 260 nm.
For RT-PCR amplification, the TaqMan® probe (AppliedBiosystems) method was used. The following TYaqMan probe was used: Hs00174128_m1 (TNF-α). GAPDH: Hs99999905_m1 was used as control gene (housekeeping).
(§9) The data obtained were analyzed according to the method of 2-ΔΔCt and so it was possible to calculate the relative values of expression of the gene of interest, normalized compared to the housekeeping gene and calibrated on the control sample (untreated cells): ΔCt=ΔCttarget-housekeeping (control)−ΔCttarget-housekeeping (treated cells)
(§10) The 2^−ΔΔCt was calculated assuming an amplification efficiency of 100%.

[2] = HORAC Hydroxyl radical antioxidant capacity assay
From the text: HORAC Assay: Hydroxyl Antioxidant Capacity In Vitro
The commercial kit “Oxiselect Hydroxyl Radical Antioxidant Capacity (HORAC) activity assay” (Cell Biolabs).
The HORAC assay esxpresses the compound antiradical capacity towards the hydroxyl radical OH′ and is based on the oxidation of a fluorescent probe by hydroxyl radicals through a hydrogen transfer process (HAT). Hydroxyl radicals are produced by a radical initiator hydroxyl and by Fenton's reagent, which quenches the fluorescent probe over time. The antioxidants present in the sample block the oxidation by the hydroxyl radical of the fluorescent probe until the antioxidant activity in the sample runs out. The remaining hydroxyl radicals destroy the fluorescence of the fluorescent probe. The antioxidant capacity of the sample is related to the fluorescence decay curve, which usually is represented as the area under the curve (AUC). The AUC is used to quantify the total antioxidant activity of the hydroxyl radical in a sample and is compared to the curve of an antioxidant standard.
The compounds of the invention were tested at the following concentrations: 13.5 μM; 27 μM, 13.5 mM; 27 mM.
For comparison purposes, also samples of the compound monofurfurylidene-2.4-sorbitol defined below by the acronym ARGB11, were in this case tested under the same two concentrations, as a reference compound according to EP0345362 mentioned above as the background art of substances with free radical inhibition activity.

[3] = system: involucrin (IVL); test: Skin barrier function protection: involucrin (IVL) gene expression by qRT-PCR in LPS-treated keratinocytes; type: cell-based, human; settings: 13.5 μM, with LPS, Control + LPS = 1.000
Method: as §1, §2, §3
Study of the Skin Barrier Function Protection
The gene expression of the involucrin (IVL) and fillagrin (FLG) markers was evaluated by relative quantitative RT-PCR (quantitative reverse transcription-polymerase chain reaction-qRT-PCR).
as §4
Human keratinocytes NCTC2544 were seeded in 12-well plates at the density of 0.5*10^6 cells/well and incubated until reaching about 80% confluence.
Then, the cells were incubated for 16 and 24 hours with the active compounds to be tested and the respective controls at the following concentrations: 13.5 and 27 μM, and admixed (in the well) with 10 μg/ml LPS.
as §5, §6, §7, §8
For RT-PCR amplification, the TaqMan® probe (AppliedBiosystems) method was used. The following TYaqMan probe was used: Hs00846307_s1 (IVL) and Hs00863478_g1 (FLG).
GAPDH: Hs99999905_m1 was used as control gene (housekeeping).
as §9, with “ΔΔCt=ΔCttarget-housekeeping” for “ΔCt=ΔCttarget-housekeeping”
as §10

[4] = higher dosages (13.5 μM and 27 μM)
[5] = lower concentrations 13.5 μM and 27 μM

| SMILES | TNF-α (relative gene expression) ([1]; 13.5 μM, 16 h) | Comparison vs LFS (%) ([1]; 13.5 μM, 16 h) | TNF-α (relative gene expression) ([1]; 13.5 μM, 24 h) | Comparison vs LFS (%) ([1]; 13.5 μM, 24 h) | TNF-α (relative gene expression) ([1]; 27 μM, 16 h) | Comparison vs LFS (%) ([1]; 27 μM, 16 h) | TNF-α (relative gene expression) ([1]; 27 μM, 24 h) | Comparison vs LFS (%) ([1]; 27 μM, 24 h) | anti-inflammatory activity (TNF-α), assessment in words ([1]; lower dose) | HORAC (Hydroxyl Radical Antioxidant Capacity) ([2]; 13.5 μM) [μMole GAE/L] | HORAC (Hydroxyl Radical Antioxidant Capacity) ([2]; 27 μM) [μMole GAE/L] | HORAC (Hydroxyl Radical Antioxidant Capacity) ([2]; 13.5 mM) [μMole GAE/L] | HORAC (Hydroxyl Radical Antioxidant Capacity) ([2]; 27 mM) [μMole GAE/L] | HORAC activity compared with reference ARGB11 [2, 4] | HORAC activity compared with reference ARGB11 [2, 5] | (IVL) 16 h RQ ± SEM [3] | anti-inflammatory activity (TNF-α), assessment in words ([1]; higher dose) |
| --- | --- | --- | --- | --- | --- | --- | --- | --- | --- | --- | --- | --- | --- | --- | --- | --- | --- |
| OCC1OC(c2ccco2)OC(CO)C1O (stereo not drawn) [Xylitil furfural, xylitil furfural] | 0.03 | 98.96 | 0.03 | 99.85 | 0.18 | 94.37 | 0.18 | 99.10 | remarkable | 418.69 | 524.692 | 897.479 | 1242.582 | higher activity than the selected reference ARGB11 | higher than the selected reference ARGB11 | 60.653 ± 14.549 |  |
| CC(=O)OCC1OC(c2ccco2)OC(C(COC(C)=O)OC(C)=O)C1OC(C)=O (stereo not drawn) [Tetracetyl sorbityl furfural, tetracetyl sorbityl furfural] | 0.35 | 89.06 | 5.75 | 71.78 | 0.28 | 91.18 | 0.12 | 99.39 |  | 797.50 | 171.083 | 330.960 | 428.775 | fully comparable activity | higher than the selected reference ARGB11 | 57.282 ± 17.060 |  |
| OCC(O)C1OC(c2ccccc2)OC(CO)C1O (stereo not drawn) [Sorbityl benzal, sorbityl benzal] | 0.39 | 87.93 | 0.71 | 96.50 | 0.08 | 97.62 | 0.01 | 99.97 |  | 31.04 | 40.110 | 308.497 | 408.795 | fully comparable activity | fully comparable activity | 6.646 ± 1.733 | particularly significant |
| O=C(OCC1OC(c2ccco2)OC(C(COC(=O)c2ccccc2)OC(=O)c2ccccc2)C1OC(=O)c1ccccc1)c1ccccc1 (stereo not drawn) [Tetrabenzoyl sorbityl furfural, tetrabenzoyl sorbityl furfural] | 0.63 | 80.28 | 2.51 | 87.69 | 0.45 | 85.81 | 0.28 | 98.63 |  | 37.65 | 41.485 | 300.856 | 211.479 | fully comparable activity | fully comparable activity | 9.563 ± 1.159 |  |
| COc1cc(C2OC(CO)C(O)C(C(O)CO)O2)ccc1O (stereo not drawn) [Sorbityl vanillinal, sorbityl vanillinal] | 0.04 | 98.64 | 0.09 | 99.57 | 0.15 | 95.44 | 0.21 | 98.95 | remarkable | 70.29 | 115.422 | 3544.098 | 3261.945 | higher activity than the selected reference ARGB11 | higher than the selected reference ARGB11 | 18.347 ± 1.664 |  |
